Experimental data published in publication PMC10126419, “pyHeart4Fish: Chamber-specific heart phenotype quantification of zebrafish in high-content screens” (Frontiers in Cell and Developmental Biology, 2023).
Entries after “also recorded” stand apart in the source; their conditions may differ. Counter-ions that a name gives are not always drawn.

How the values were obtained:
[1] = tested on: Tg(fli1a:nEGFP)^y7 zebrafish embryos; experiment: Primary high-content heart rate screen of the Prestwick Chemical Library (HeartBeat software v.2.1); assay type: in vivo; conditions: Tg(fli1a:nEGFP)^y7, zebrafish, in vivo, 24 h, 20 µM
Description: Acquired image series were preprocessed and analyzed using the previously published HeartBeat software v.2.1 and provided scripts ([Gierten et al., 2020]). For increased comparability between experiments, each quantitative HR value (beats per minute) was divided by the mean of the DMSO controls from the respective experiment. This procedure minimizes variation and creates specific fold-change values that are z-score normalized in the next step. A 90% CI was used to reduce the probability of false-negative results. Finally, data from compounds with insufficient N and known aquatic toxicity were removed.
Based on a previously established high-throughput screening pipeline, we performed a high-content drug screen in zebrafish for cardiovascular modulators ([Poureetezadi et al., 2014]; [Gierten et al., 2020]; [Westhoff et al., 2020]). […] About 98% of the library’s compounds are approved by the Food and Drug Administration (FDA), European Medicines Agency (EMA) or other regulatory agencies. The drug library was screened at a concentration of 20 µM for 24 h until 48 hpf using the transgenic zebrafish line Tg(fli1a:nEGFP)^y7. Subsequently, BF images and videos were captured at 2 dpf to assess gross morphology. HR was analyzed with the previously published tool HeartBeat (v.2.1) to identify potential hit compounds. A 90% CI threshold for effect sizes of ±1.64 was used to reduce false-negative results. […] The Open Targets platform and the Mayo Clinic Drugs and Supplements Database were systematically searched for compound names and common synonyms ([Drugs and Supplements, 2022]; [Open Targets, 2022]). The Medical Subject Headings (MeSH) terms “compound name” and “heart rate” were applied to NCBI PubMed literature research before the first five pages of publications sorted by relevance were screened for relevant information. Furthermore, compounds were filtered for unknown targets (n = 3), FDA black box warning (n = 6) and aquatic toxicity (n = 4). […] Therefore, compounds with n < 3 were excluded (n = 7).

zebrafish embryos [2] = experiment: Manually assessed pericardial edema in treated zebrafish; assay type: in vivo; conditions: 20 µM; for Edema: Mild / Edema: Moderate / Edema: No edema / Edema: Severe: number of fish, Tg(myl7:eGFP); for Pericardial edema severity: myl7:eGFP zebrafish
Description: FIGURE 4 Quantitative data analysis with pyHeart4Fish. […] (A) The left graph presents the detected heart rate derived from the fast fourier transformation (FFT). […] (B) Percentual data on the severity of manually assessed pericardial edema in treated Tg(myl7:eGPF)^twu34/+ zebrafish. (C) The relative contractility derived from percentual size changes of each heart chamber (left graph). Approximate ejection fraction determined by chamber volume changes (right graph). […] The number of fish analyzed is shown in brackets after the treatment condition. Dotted gray lines indicate z-scores of ±1.96 and statistical significance with an alpha error of 5%.

[3] = tested on: Tg(myl7:eGFP)^twu34/+ zebrafish embryos; conditions: 20 µM; for Embryos with Mobitz type II atrioventricular block (AVB): Tg(myl7:eGFP)^twu34/+, zebrafish, in vivo, 24 h
Description: Nevertheless, it is advised that arrhythmia types are confirmed manually, as was done in this study.

[4] = set-up: method as in Prestwick Chemical Library; conditions: solvents; library annotation, ref Prestwick Chemical Library; cited from earlier work
zebrafish embryos [5] = experiment: Toxicity score (ToxScore) at increasing compound concentrations; conditions: for ToxScore: 80 µM; for Concentration-dependent toxic effects: 5–80 µM
Procedure: (§1) Embryos were dechorionated at 21 hpf using 0.22 mg/ml pronase (Merck Chemicals) for 12 min. Then, embryos were carefully washed three times with egg water and transferred into a 96-deep-well plate. After incubation at 28°C for 3 h, excess water was removed with a glass capillary and exchanged with 100 µL/well of 20 µM compound solution from the Prestwick Chemical Library (Prestwick Chemicals, France) in 0.2% DMSO (v/v) in egg water. […] Subsequently, embryos were exposed to compounds for 24 h at 28°C in the dark to enable testing of light-sensitive compounds. Solutions were removed at 48 hpf before wells containing embryos were washed three times with system water. Then, treated embryos were transferred into 12-well plates containing 1 ml 0.03% tricaine in system water (Sigma-Aldrich, Germany). Testing different concentrations (5–80 µM) of compounds and their respective controls followed the above protocol.
Embryos that were deceased and not intact were assigned a max. ToxScore value of 5.

[6] = tested on: Tg(myl7:eGFP)^twu34/+ zebrafish embryos; experiment: Chamber-specific quantitative heart phenotyping with pyHeart4Fish; conditions: 20 µM; for Effect on heart function / morphology: contractility, conduction, arrhythmia, HS, EF / Effect on heart rate: vs DMSO controls; for Arrhythmia / Conduction defect: number of fish;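 for all read-outs here: embryos exposed 24 h from 24 hpf in 0.2% DMSO egg water, tricaine-anaesthetised, heartbeat videos imaged at 470 nm and hearts analysed chamber by chamber from pixel-intensity beat curves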
Procedure: as §1
Oriented embryos in 96-well plates were automatically imaged using an [sequence] Imaging Machine ([sequence] Imaging, Germany) widefield microscope. Z-stacks of 10 slices (dZ = 15 µm) were acquired in brightfield (BF) and 470 nm channels with a 4×0.13 numerical aperture objective. The focal plane was detected in the 470 nm channel using a course and secondary fine software autofocus. BF integration time was fixed at 20 ms exposure time and 55% LED intensity. The exposure time for the 470 nm channel was set to 10 ms with a 10% LED intensity. Heartbeat videos of 6 s at 6 frames/second (f/s) were acquired with a time-lapse at a 0 s interval in the focus plane acquired after secondary autofocus using the previously described integration and exposure settings with a 10×0.25 numerical aperture objective.
Hearts are analyzed chamber-specifically via the user-assisted region of interest (ROI) selection. Cardiac morphology parameters (HS and shape) are extracted as the median of the first six images/frames. Raw data of heartbeat curves for the atrium and ventricle are derived from the sum of pixel intensities and normalized chamber areas. Frequencies (in s^-1) of atrium and ventricle contraction are obtained by applying sine-curve fitting or fast Fourier transformation (FFT) using the SciPy modules “optimize.curve_fit” and “fft.rfft/fft.rfftfreq”, respectively ([Virtanen et al., 2020]). Curve fitting is performed with a maximum of 30 iterations while increasing the frequencies of the fitted sine function. The best fit is selected using the correlation coefficient between the raw data and the fitted function implemented in the NumPy package. A fitted sine function and fitting score are also determined for a truncated signal (first quarter), and the best-fitted sine function is kept to account for an unstable heartbeat signal. In the case of FFT, the first harmonic of the FFT signal is used as the frequency of the atrium or ventricle contraction. Analysis with pyHeart4Fish provides heartbeat videos in GIF format, heartbeat curves as PNG/PDF files and a data sheet containing meta information and cardiac parameters.

[7] = set-up: method as in Prestwick Chemical Library; conditions: library annotation, ref Prestwick Chemical Library; cited from earlier work
zebrafish embryos [8] = experiment: Gross morphology / development of treated zebrafish 2 dpf (brightfield); assay type: in vivo; conditions: 20 µM, 2 dpf
Procedure: FIGURE 5 Morphology of treated zebrafish 2 dpf. An overview of the gross phenotypes of treated zebrafish 2 days post-fertilization. All compounds were dissolved in DMSO; therefore, DMSO served as the negative control. NaCl served as the salt control. The effects of atorvastatin treatment on zebrafish embryos were previously established; thus, this drug was used as a positive control for cardioactivity. The aquatic toxic compound enilconazole was used as the toxic positive control. […] The black arrow in the image of iopanoic acid-treated zebrafish embryo indicates caudal fin deformity. The scale bar indicates 500 µm in overview brightfield images and 150 µm in fluorescence images. (a) Atrium; (v) ventricle.

zebrafish embryos [9] = conditions: 71 μM, ref Yang et al., 2014; cited from earlier work
zebrafish embryos [10] = experiment: Manually assessed pericardial edema in treated zebrafish; assay type: in vivo; conditions: 20 µM, fli1a:eGFP zebrafish

| SMILES | Z-score Heart rate [1] [z-score] | Edema: Mild (zebrafish embryos [2]) | Edema: Moderate (zebrafish embryos [2]) | Edema: No edema (zebrafish embryos [2]) | Edema: Severe (zebrafish embryos [2]) | Lit. Solubility [4] | Effect on heart rate [6] | Arrhythmia [6] | Conduction defect [6] | also measured |
| --- | --- | --- | --- | --- | --- | --- | --- | --- | --- | --- |
| CN(C)CCN(Cc1ccc(Cl)cc1)c1ccccn1 [Chloropyramine HCl, chloropyramine HCl] | -2.971 | 4 | 7 | 0 | 0 | DMSO | decreased HR | 0 | 2 | Embryos with Mobitz type II atrioventricular block (AVB) [3]: 18.2%; ToxScore (zebrafish embryos [5]): 4.8; Effect on heart function / morphology: contractility, conduction, arrhythmia, HS, EF [6]: a slower HR in the ventricle than in the atrium |
| CNCC[C@@H](Oc1cccc2ccccc12)c1cccs1 [(R)-Duloxetine HCl] | – | 1 | 3 | 0 | 2 | – | not significantly decreased | 0 | 2 | Treated embryos with atrial flutter [3]: 33%; Fraction of embryos with atrial flutter ([3]; manual analysis of heartbeat videos): one-third; Concentration-dependent toxic effects (zebrafish embryos [5]; listed as DLX): dose-dependently increased the ToxScore; also recorded: complete lethality at 80 µM |
| COc1ccc(CCN2CCC(Nc3nc4ccccc4n3Cc3ccc(F)cc3)CC2)cc1 [Astemizole] | -7.189 | – | – | – | – | CH2Cl2, MeOH | – | – | – | Metabolism: tissue [7]: Liver |
| C[C@@H]1C[C@@H]([C@H](O)CC2CC(=O)NC(=O)C2)C(=O)[C@@H](C)C1 [Cycloheximide] | – | 0 | 3 | 1 | 3 | – | – | 3 | 0 | Pericardial edema severity (zebrafish embryos [2]): moderate to severe pericardial edema; Gross morphology / developmental and teratogenic effects (zebrafish embryos [8]; listed as CHX): bent tails; also recorded: development was delayed; Effect on ventricular volume (zebrafish embryos [9]): decreased ventricular volume; Concentration-dependent toxic effects (zebrafish embryos [5]): doses higher than 40 µM induced cardiac arrest and severe pericardial edema |
| Cc1cccc(CN2CCN(C(c3ccccc3)c3ccc(Cl)cc3)CC2)c1.Cl.Cl (stereo not shown) [Meclozine dihydrochloride] | – | – | – | – | – | CHCl3, pyridine | – | – | – | Metabolism: tissue [7]: Liver |
| CN(C)CCN(Cc1cccs1)c1ccccn1 [Methapyrilene HCl, methapyrilene HCl] | -2.21 | 1 | 2 | 1 | 1 | H2O, EtOH, CHCl3 | decreased HR | 2 | 2 | Embryos with Mobitz type II atrioventricular block (AVB) [3]: 50% |
| CCC(Cc1c(I)cc(I)c(N)c1I)C(=O)O (stereo not shown) [Iopanoic acid] | – | 2 | 1 | 1 | 0 | – | – | 0 | 0 | Pericardial edema severity (zebrafish embryos [2]): mild edema; Gross morphology / developmental and teratogenic effects (zebrafish embryos [8]; listed as IOP): developmental delay; also recorded: caudal fin deformities; Pericardial edema severity (zebrafish embryos [10]): moderate edema; ToxScore (zebrafish embryos [5]): 4.4; Effect on heart function / morphology: contractility, conduction, arrhythmia, HS, EF [6]: Contractility, HS and EF were not affected |
